Results taken from patent publication US4874851A, “3',4'-dinitrogen substituted epipodophyllotoxin glucoside derivatives” (Bristol-Meyers Company, priority 1987, dated 1989).
Converted amounts (≈) assume the structure as drawn.

How the values were obtained:
B16-F10 murine melanoma = experiment: In vitro cytotoxicity assay, B16-F10 murine melanoma; format: cell-based; details: four-fold serial dilution, <500 μg/ml positive, two lines per compound; for IC50: Mus musculus, B16-F10, inhibit cell growth by 50%, read-out: IC50 B-16-F10; for IC50 B-16-F10: inhibit cell growth by 50%
Method: (§1) Representative compounds of the present invention were evaluated for their antitumor activity in in vitro cytotoxicity assay against human and murine tumor cell lines, as well as against transplantable murine P388 leukemia.
(§2) The in vitro cytotoxicity assay involved growing various mammalian tumor cells, including human tumor cells, on microtitre plates employing established tissue culture methods. The concentration of each compound required to inhibit cell growth by 50% (IC50) was then determined by a four-fold serial dilution technique. The validity of the method has been supported by a report published in the "Proceedings of the American Association for Cancer Research", 1984, 25: 1891 (Abst. No. 328). Tumor cells of the following types were employed for each compound tested: B16-F10 murine melanoma; KB human nasopharyngyl; Moser human colon; SW900 human lung; M109 murine lung; and three human colon tumor cell lines namely HCT-116, HCT-VM, and HCT-VP, the latter two being resistant to teniposide (VM) and etoposide (VP), respectively. IC50 values less than 500 μg/ml are a positive indicator of antitumor activity. Table II presents IC50 values of various compounds of the present invention against the aforementioned cell lines.

P388 leukemia = experiment: Antitumor activity against transplantable murine P388 leukemia in mice (i.p. implant); format: in vivo, murine (female CDF1 mice); details: i.p. on days 5 and 8; 10^6 ascites cells i.p.; maximum effect over doses; >=125 significant
Method: as §1
Female CDF1 mice were implanted intraperitoneally with a tumor inoculum of 10^6 ascites cells of P388 murine leukemia and treated with various doses of a test compound; four mice were used for each dose level and ten were used as saline-treated control. The compounds were administered by intraperitoneal injection on days 5 and 8 (day 1 being the day of tumor implantation). Antitumor activity was expressed as % T/C which is the ratio of the median survival time (MST) of drug-treated group to the MST of saline-treated control group. A compound showing a % T/C value of 125 or greater is generally considered to have significant antitumor activity in the P388 test. The experiment lasted 31 days at the end of which time the number of survivors was noted. Table I presents the results of the above-described evaluation; only the maximum % T/C and the dose showing the maximum effect are reported.

M109 murine lung = experiment: In vitro cytotoxicity assay, M109 murine lung; format: cell-based; details: four-fold serial dilution, two lines per compound; for IC50: Mus musculus, M109, inhibit cell growth by 50%; for IC50 M109: inhibit cell growth by 50%
Method: as §1, §2

KB human nasopharyngyl = experiment: In vitro cytotoxicity assay, KB human nasopharyngyl; format: cell-based; details: inhibit cell growth by 50%, four-fold serial dilution, two lines per compound
Method: as §1, §2

SW900 human lung = experiment: In vitro cytotoxicity assay, SW900 human lung; format: cell-based; details: four-fold serial dilution, two lines per compound; for IC50: Homo sapiens, SW900, inhibit cell growth by 50%
Method: as §1, §2

HCT-116 = experiment: In vitro cytotoxicity assay, HCT-116 human colon; format: cell-based; details: four-fold serial dilution, two lines per compound; for IC50: Homo sapiens, HCT-116, inhibit cell growth by 50%; for IC50 HCT-116: inhibit cell growth by 50%
Method: as §1, §2

Moser human colon = experiment: In vitro cytotoxicity assay, Moser human colon; format: cell-based; details: inhibit cell growth by 50%, four-fold serial dilution, two lines per compound; for IC50: Homo sapiens
Method: as §1, §2

HCT/VP35 = experiment: In vitro cytotoxicity assay, HCT/VP35 human colon, resistant to etoposide; format: cell-based; details: inhibit cell growth by 50%, two lines per compound
Method: as §1, §2

HCT/VM46 = experiment: In vitro cytotoxicity assay, HCT/VM46 human colon, resistant to teniposide; format: cell-based; details: inhibit cell growth by 50%, two lines per compound
Method: as §1, §2

[1] = system: small cell lung cancer, non-lymphocytic leukemia, and non-seminomatous testicular cancer; details: AMA Drug Evaluation, 5th Edition, 1983; cited from earlier work

In the case of `COC1=CC(C2c3cc4c(cc3C(OC3OC5COC(C)OC5C(O)C3O)C3COC(=O)C23)OCO4)=CC(=NOCc2ccccc2)C1=NOCc1ccccc1` (stereo not shown) [Example 1, 4'-Dehydroxy-3'-demethoxy-etoposide 3',4'-bis-O-benzyloxime], the IC50 (B16-F10 murine melanoma) is reported as 14.5 µg/mL (≈ 18.5 µM), the “IC50 B-16-F10” value (B16-F10 murine melanoma) is reported as 14.1 µg/mL (≈ 18 µM) and the “Max. % T/C (median survival time treated / saline control)” value (P388 leukemia) is reported as 126%. For the same molecule, the IC50 (M109 murine lung) was 83 µg/mL (≈ 106 µM), the “IC50 M109” value (M109 murine lung) was 59 µg/mL (≈ 75.4 µM) and the IC50 (KB human nasopharyngyl; Homo sapiens) was 37 µg/mL (≈ 47.3 µM). The “IC50 KB” value (KB human nasopharyngyl) was 28 µg/mL (≈ 35.8 µM).

In the case of `CON=C1C=C(C2c3cc4c(cc3C(OC3OC5COC(C)OC5C(O)C3O)C3COC(=O)C23)OCO4)C=C(OC)C1=NOC` (stereo not shown) [Example 2, 4'-Dehydroxy-3'-demethoxy-etoposide 3',4'-bis-O-methyloxime], the IC50 (B16-F10 murine melanoma) is reported as 29 µg/mL (≈ 46 µM), the “IC50 B-16-F10” value (B16-F10 murine melanoma) is reported as 51 µg/mL (≈ 80.9 µM) and the “Max. % T/C (median survival time treated / saline control)” value (P388 leukemia) is reported as 175%. The IC50 (SW900 human lung) was over 250 µg/mL, the IC50 (HCT-116) was 84 µg/mL (≈ 133 µM) and the “IC50 HCT-116” value (HCT-116) was 91 µg/mL (≈ 144 µM). The IC50 (Moser human colon) was 54 µg/mL (≈ 85.6 µM) and the “IC50 MOSER” value (Moser human colon) was 40 µg/mL (≈ 63.4 µM).

For `COc1cc(C2c3cc4c(cc3C(OC3OC5COC(C)OC5C(O)C3O)C3COC(=O)C23)OCO4)cc(N)c1N` (stereo not shown) [Example 3, 4'-Dehydroxy-3'-demethoxy-3',4'-diamino etoposide], the “Max. % T/C (median survival time treated / saline control)” value (P388 leukemia) was 216%, the IC50 (HCT-116) was 108 µg/mL (≈ 189 µM) and the “IC50 HCT-116” value (HCT-116) was 102 µg/mL (≈ 178 µM). The IC50 (M109 murine lung) was 104 µg/mL (≈ 182 µM), the “IC50 M109” value (M109 murine lung) was 87 µg/mL (≈ 152 µM) and the IC50 (Moser human colon) was 87 µg/mL (≈ 152 µM). For the same molecule, the “IC50 MOSER” value (Moser human colon) was 91 µg/mL (≈ 159 µM).

With `COc1cc(C2c3cc4c(cc3C(OC3OC5COC(C)OC5C(O)C3O)C3COC(=O)C23)OCO4)cc(NC(C)=O)c1NC(C)=O` (stereo not shown) [Example 4, 4'-Dehydroxy-3'-demethoxy-3',4'-bis-acetylamino etoposide] the IC50 (B16-F10 murine melanoma) was 116 µg/mL (≈ 177 µM), the “IC50 B-16-F10” value (B16-F10 murine melanoma) was 98 µg/mL (≈ 149 µM) and the “Max. % T/C (median survival time treated / saline control)” value (P388 leukemia) was 105%. The IC50 (SW900 human lung) was over 250 µg/mL, the IC50 (HCT-116) was over 250 µg/mL and the IC50 (Moser human colon) was 106 µg/mL (≈ 161 µM). The “IC50 MOSER” value (Moser human colon) was 123 µg/mL (≈ 187 µM).

In the case of `COc1cc(C2c3cc4c(cc3C(OC3OC5COC(C)OC5C(O)C3O)C3COC(=O)C23)OCO4)cc(N=Cc2ccncc2)c1N=Cc1ccncc1` (stereo not shown) [Example 10, 4'-Dehydroxy-3'-demethoxy-3',4'-bis-(4-pyridylmethylene) amino Etoposide], the IC50 (B16-F10 murine melanoma) is reported as 59 µg/mL (≈ 78.6 µM), the “IC50 B-16-F10” value (B16-F10 murine melanoma) is reported as 100 µg/mL (≈ 133 µM) and the “Max. % T/C (median survival time treated / saline control)” value (P388 leukemia) is reported as 145%. The IC50 (SW900 human lung) was over 250 µg/mL, the IC50 (HCT-116) was 81 µg/mL (≈ 108 µM) and the “IC50 HCT-116” value (HCT-116) was 103 µg/mL (≈ 137 µM).

With `COc1cc(C2c3cc4c(cc3C(OC3OC5COC(C)OC5C(O)C3O)C3COC(=O)C23)OCO4)cc2nn[nH]c12` (stereo not shown) [Example 17, 4'-Dehydroxy-3'-demethoxy-etoposide 3',4'-triazole] the IC50 (B16-F10 murine melanoma) was 45 µg/mL (≈ 77.1 µM), the “IC50 B-16-F10” value (B16-F10 murine melanoma) was 55 µg/mL (≈ 94.3 µM) and the “Max. % T/C (median survival time treated / saline control)” value (P388 leukemia) was 125%. The IC50 (SW900 human lung) was 78 µg/mL (≈ 134 µM), the “IC50 SW900” value (SW900 human lung; inhibit cell growth by 50%) was 89 µg/mL (≈ 153 µM) and the IC50 (HCT/VP35; Homo sapiens, HCT/VP35, etoposide-resistant) was 84 µg/mL (≈ 144 µM). For the same molecule, the “IC50 HCT/VP35” value (HCT/VP35; etoposide-resistant) was 82 µg/mL (≈ 141 µM), the IC50 (HCT-116) was 53 µg/mL (≈ 90.8 µM) and the “IC50 HCT-116” value (HCT-116) was 62 µg/mL (≈ 106 µM). For the same molecule, the IC50 (HCT/VM46; Homo sapiens) was 64 µg/mL (≈ 110 µM), the “IC50 HCT/VM46” value (HCT/VM46) was 88 µg/mL (≈ 151 µM) and the IC50 (Moser human colon) was 91 µg/mL (≈ 156 µM). The “IC50 MOSER” value (Moser human colon) was 88 µg/mL (≈ 151 µM).

For `COc1cc(C2c3cc4c(cc3C(OC3OC5COC(C)OC5C(O)C3O)C3COC(=O)C23)OCO4)cc2nc[nH]c12` (stereo not shown) [Example 18, 4'-Dehydroxy-3'-demethoxy etoposide 3',4'-imidazole], the IC50 (B16-F10 murine melanoma) was 82 µg/mL (≈ 141 µM), the “IC50 B-16-F10” value (B16-F10 murine melanoma) was 55 µg/mL (≈ 94.4 µM) and the “Max. % T/C (median survival time treated / saline control)” value (P388 leukemia) was 115%. For the same molecule, the IC50 (SW900 human lung) was over 250 µg/mL, the IC50 (HCT-116) was over 250 µg/mL and the IC50 (Moser human colon) was 116 µg/mL (≈ 199 µM). For the same molecule, the “IC50 MOSER” value (Moser human colon) was 115 µg/mL (≈ 197 µM).

In the case of `COc1cc(C2c3cc4c(cc3C(OC3OC5COC(C)OC5C(O)C3O)C3COC(=O)C23)OCO4)cc2nc(C)c(C)nc12` (stereo not shown) [Example 20, 4'-Dehydroxy-3'-demethoxy-etoposide 3',4'-(2,3-dimethylpyrazine)], the IC50 (B16-F10 murine melanoma) is reported as 118 µg/mL (≈ 190 µM), the “IC50 B-16-F10” value (B16-F10 murine melanoma) is reported as 113 µg/mL (≈ 181 µM) and the “Max. % T/C (median survival time treated / saline control)” value (P388 leukemia) is reported as 110%. For the same molecule, the IC50 (SW900 human lung) was over 250 µg/mL, the IC50 (HCT-116) was 103 µg/mL (≈ 165 µM) and the “IC50 HCT-116” value (HCT-116) was 99 µg/mL (≈ 159 µM). The IC50 (Moser human colon) was 113 µg/mL (≈ 181 µM) and the “IC50 MOSER” value (Moser human colon) was 90 µg/mL (≈ 145 µM).

With `CCOP1(=S)Nc2cc(C3c4cc5c(cc4C(OC4OC6COC(C)OC6C(O)C4O)C4COC(=O)C34)OCO5)cc(OC)c2N1` (stereo not shown) [Example 21, 4'-Dehydroxy-3'-demethoxy etoposide 3',4'-ethylthiophosphamide] the IC50 (B16-F10 murine melanoma) was 23 µg/mL (≈ 33.9 µM), the “IC50 B-16-F10” value (B16-F10 murine melanoma) was 17.9 µg/mL (≈ 26.4 µM) and the “Max. % T/C (median survival time treated / saline control)” value (P388 leukemia) was 145%. For the same molecule, the IC50 (SW900 human lung) was over 250 µg/mL, the IC50 (HCT-116) was 20 µg/mL (≈ 29.5 µM) and the “IC50 HCT-116” value (HCT-116) was 26 µg/mL (≈ 38.3 µM). For the same molecule, the IC50 (Moser human colon) was 21 µg/mL (≈ 30.9 µM) and the “IC50 MOSER” value (Moser human colon) was 23 µg/mL (≈ 33.9 µM).

In the case of `COc1cc([C@@H]2c3cc4c(cc3[C@@H](O[C@@H]3O[C@@H]5CO[C@@H](C)O[C@H]5[C@H](O)[C@H]3O)[C@H]3COC(=O)[C@H]23)OCO4)cc(OC)c1O` [etoposide], the “activity in the treatment of a variety of cancers (in words)” value [1] is listed as “active in the treatment of a variety of cancers”.

In the case of `COc1cc([C@@H]2c3cc4c(cc3[C@@H](O[C@@H]3O[C@@H]5CO[C@@H](c6cccs6)O[C@H]5[C@H](O)[C@H]3O)[C@H]3COC(=O)[C@H]23)OCO4)cc(OC)c1O` [teniposide], the “activity in the treatment of a variety of cancers (in words)” value [1] is given as “active in the treatment of a variety of cancers”.
